Measurements from PubChem BioAssay (NCI).
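Following 48 hours of exposure in 96-well plates, responses at five concentrations were used to interpolate endpoints linearly. Abbreviation: GI50, concentration required for 50% inhibition of growth. TGI is the concentration that stops growth completely.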

Tests used:
Assay in all cases: inhibition of tumour cell growth, NCI panel, 48 h
[1] = test system: HS 578T breast
[2] = test system: SNB-19 CNS
[3] = test system: RPMI-8226 leukemia
[4] = test system: COLO 205 colon
[5] = test system: CAKI-1 renal
[6] = test system: RXF 393 renal
[7] = test system: CCRF-CEM leukemia
[8] = test system: SK-MEL-5 melanoma
[9] = test system: SF-539 CNS
[10] = test system: TK-10 renal
[11] = test system: SNB-75 CNS
[12] = test system: A498 renal
[13] = test system: MOLT-4 leukemia
[14] = test system: NCI/ADR-RES ovarian
[15] = test system: HOP-92 NSCLC
[16] = test system: SW-620 colon
[17] = test system: M14 melanoma
[18] = test system: HCC-2998 colon
[19] = test system: UACC-62 melanoma
[20] = test system: SK-MEL-2 melanoma
[21] = test system: HL-60(TB) leukemia
[22] = test system: SK-OV-3 ovarian
[23] = test system: HOP-62 NSCLC
[24] = test system: UO-31 renal
[25] = test system: SK-MEL-28 melanoma
[26] = test system: MCF7 breast
[27] = test system: SR leukemia
[28] = test system: HCT-15 colon
[29] = test system: BT-549 breast

## CCCCCCCC(=O)Nc1nc2[nH]c(CN3CCN(Cc4cccc(I)c4)CC3)c(CN3CCN(Cc4cccc(I)c4)CC3)c2c(=O)[nH]1
[1]
  GI50: 882 nM
  TGI: 1950 nM
[2]
  GI50: 858 nM
  TGI: 1620 nM
[3]
  GI50: 531 nM
  TGI: 1810 nM
[4]
  GI50: 972 nM
  TGI: 1970 nM
[5]
  GI50: 816 nM
  TGI: 1490 nM
[6]
  GI50: 780 nM
  TGI: 1490 nM
[7]
  GI50: 1250 nM
  TGI: 3220 nM
[8]
  GI50: 973 nM
  TGI: 1900 nM
[9]
  GI50: 880 nM
  TGI: 1610 nM
[10]
  GI50: 828 nM
  TGI: 1620 nM
[11]
  GI50: 691 nM
  TGI: 1350 nM
[12]
  GI50: 800 nM
  TGI: 1620 nM
[13]
  GI50: 934 nM
  TGI: 2590 nM
[14]
  GI50: 882 nM
  TGI: 1740 nM
[15]
  GI50: 668 nM
  TGI: 1400 nM
[16]
  GI50: 848 nM
  TGI: 1630 nM
[17]
  GI50: 882 nM
  TGI: 1770 nM
[18]
  GI50: 823 nM
  TGI: 1540 nM
[19]
  GI50: 901 nM
  TGI: 1660 nM
[20]
  GI50: 970 nM
  TGI: 2050 nM
[21]
  GI50: 924 nM
  TGI: 2270 nM
[22]
  GI50: 916 nM
  TGI: 1700 nM
[23]
  GI50: 936 nM
  TGI: 2060 nM
[24]
  GI50: 717 nM
  TGI: 1410 nM
[25]
  GI50: 937 nM
  TGI: 1700 nM
[26]
  GI50: 793 nM
  TGI: 1510 nM
[27]
  GI50: 238 nM
  TGI: 1060 nM
[28]
  GI50: 812 nM
  TGI: 1540 nM
[29]
  GI50: 885 nM
  TGI: 1830 nM
